In patent US9493444B2 (Merck Patent GmbH, priority 2012, dated 2016):

Test system: Wnt pathway (TCF-dependent transcription in HEK293 luciferase reporter cell line with ER-DSH construct)
Test: Cellular assay for Wnt pathway activity (luciferase reporter)
Assay type: cell-based
Settings: Homo sapiens; Wnt pathway inhibition, HEK293 luciferase reporter cells (ER-DSH, TCF promoter), 24 hours incubation, estrogen-induced
Method in brief: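 Luminescent luciferase read-out after 24 h compound exposure at 1 nM to 30 μM, with TCF-driven transcription switched on by estrogen addition. IC50 values come from curve fits of data normalized against the vehicle-only control.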

Compound | IC50
CCc1ccnc(-c2ccc(Oc3cncc(N(C)CCN(C)C(C)=O)n3)cc2)c1 [Compound 167, N-[2-({6-[4-(4-Ethyl-pyridin-2-yl)-phenoxy]-pyrazin-2-yl}-methyl-amino)-ethyl]-N-methyl-acetamide] | 0.2 to 1 µM
CC(=O)N(C)CCN(C)c1cncc(Oc2ccc(Cn3nc(-c4cc(F)cc(F)c4)ccc3=O)cc2)n1 [Compound 127, N-{2-[(6-{4-[3-(3,5-Difluoro-phenyl)-6-oxo-6H-pyridazin-1-ylmethyl]-phenoxy}-pyrazin-2-yl)-methyl-amino]-ethyl}-N-methyl-acetamide] | 1 to 10 µM
CC(=O)N(CCN(c1cncc(Oc2ccc(F)cc2)n1)C(C)C)C(C)C [Compound 168, N-(2-{[6-(4-Fluoro-phenoxy)pyrazin-2-yl]-isopropyl-amino}-ethyl)-N-isopropyl-acetamide] | 0.2 to 1 µM
CC(=O)N(C)CCN(C)c1cncc(Oc2ccc(-c3ncc(O)cn3)cc2)n1 [Compound 165, N-[2-({6-[4-(5-Hydroxy-pyrimidin-2-yl)-phenoxy]-pyrazin-2-yl}-methyl-amino)-ethyl]-N-methyl-acetamide] | 1 to 10 µM
CC(=O)N(C)CCN(C)c1cncc(Oc2ccc(-c3ccc(C#N)nc3)cc2)n1 [Compound 211, N-[2-({6-[4-(6-Cyano-pyridin-3-yl)-phenoxy]-pyrazin-2-yl}-methyl-amino)-ethyl]-N-methyl-acetamide] | < 0.2 µM
CC(=O)N(C)CCN(C)c1cncc(Oc2ccc(CO)cc2)n1 [Compound 181, N-(2-{[6-(4-Hydroxymethyl-phenoxy)-pyrazin-2-yl]-methyl-amino}-ethyl)-N-methyl-acetamide] | < 0.2 µM
CN(C=O)CCNc1cncc(Oc2ccc(-c3cccc(N4CCN(C)CC4)n3)cc2)n1 [Compound 311, N-Methyl-N-[2-(6-{4-[6-(4-methyl-piperazin-1-yl)-pyridin-2-yl]-phenoxy}-pyrazin-2-ylamino)-ethyl]-formamide] | 0.2 to 1 µM
Cc1ccc(-c2ccc(Oc3cncc(NCCN4CCCCC4=O)n3)cc2)nc1 [Compound 197, 1-(2-{6-[4-(5-Methyl-pyridin-2-yl)-phenoxy]-pyrazin-2-ylamino}-ethyl)-piperidin-2-one] | < 0.2 µM
CNC(=O)CCCN(C)c1cncc(Oc2ccc(F)cc2)n1 [Compound 189, 4-{[6-(4-Fluoro-phenoxy)-pyrazin-2-yl]-methyl-amino}-N-methyl-butyramide] | 1 to 10 µM
CC(=O)N(C)CCN(C)c1cncc(Oc2ccc(-c3ccc(F)cn3)cc2F)n1 [Compound 226, N-[2-({6-[2-Fluoro-4-(5-fluoro-pyridin-2-yl)-phenoxy]-pyrazin-2-yl}-methyl-amino)-ethyl]-N-methyl-acetamide] | < 0.2 µM
CC(=O)N(C)CCN(C)c1cncc(Oc2cccc(C)c2)n1 [Compound 44, N-Methyl-N-{2-[methyl-(6-m-tolyloxy-pyrazin-2-yl)-amino]-ethyl}-acetamide] | 1 to 10 µM
CC(=O)N(C)CCN(C)c1cncc(Oc2ccc(-c3ccccc3S(C)(=O)=O)cc2)n1 [Compound 150, N-(2-{[6-(2′-Methane-sulfonyl-biphenyl-4-yloxy)-pyrazin-2-yl]-methyl-amino}-ethyl)-N-methyl-acetamide] | < 0.2 µM
CNCCN(C)c1cncc(OC2CCCCC2)n1 [Compound 46, N-(6-Cyclo-hexyloxy-pyrazin-2-yl)-N,N′-dimethyl-ethane-1,2-diamine] | 0.2 to 1 µM
CC(=O)N(C)CCN(C)c1cncc(Oc2ccc(-c3cccc(S(C)(=O)=O)n3)cc2)n1 [Compound 206, N-[2-({6-[4-(6-Methane-sulfonyl-pyridin-2-yl)-phenoxy]-pyrazin-2-yl}-methyl-amino)-ethyl]-N-methyl-acetamide] | < 0.2 µM
CC(=O)N1CCCC(CNc2cncc(Oc3ccc(F)cc3)n2)C1 (centres unmarked) [Compound 39, 1-(3-{[6-(4-Fluoro-phenoxy)-pyrazin-2-ylamino]-methyl}-piperidin-1-yl)-ethanone] | 1 to 10 µM
CC(=O)N(C)CCN(C)c1cncc(Oc2ccc(-c3cnc4sc(=O)[nH]c4c3)cc2)n1 [Compound 186, N-Methyl-N-[2-(methyl-{6-[4-(2-oxo-1,2-dihydro-thiazolo[5,4-b]pyridin-6-yl)-phenoxy]-pyrazin-2-yl}-amino)-ethyl]-acetamide] | < 0.2 µM
COc1ccc(Oc2cncc(N(C)CCN(C)C(=O)CCC(C)C)n2)cc1 [Compound 64, 4-Methyl-pentanoic acid (2-{[6-(4-methoxy-phenoxy)-pyrazin-2-yl]-methyl-amino}-ethyl)-methyl-amide] | 1 to 10 µM
CS(=O)(=O)c1cncc(-c2ccc(Oc3cncc(NCCC(N)=O)n3)cc2)c1 [Compound 300, 3-{6-[4-(5-Methane-sulfonyl-pyridin-3-yl)-phenoxy]-pyrazin-2-ylamino}-propionamide] | ≥ 10 µM
CC(=O)N(C)CCN(C)c1cncc(Oc2ccc(-c3cccc(C#N)n3)cc2)n1 [Compound 200, N-[2-({6-[4-(6-Cyano-pyridin-2-yl)-phenoxy]-pyrazin-2-yl}-methyl-amino)-ethyl]-N-methyl-acetamide] | < 0.2 µM

Compound | IC50
CC(=O)N(C)CCN(C)c1cncc(Oc2ccc(-n3ccnc3)cc2)n1 [Compound 118] | < 0.2 µM
CC(=O)N(C)CCN(C)c1cncc(Oc2ccc(-c3ccc(CN(C)C(=O)CCCCCNC(=O)CCCCC4SCC5NC(=O)NC54)nc3)cc2)n1 (centres unmarked) [Compound 272, 6-[5-(2-Oxo-hexahydro-thieno[3,4-d]imidazol-6-yl)-pentanoyl-amino]-hexanoic acid {5-[4-(6-{[2-(acetyl-methyl-amino)-ethyl]-methyl-amino}-pyrazin-2-yloxy)-phenyl]-pyridin-2-ylmethyl}-methyl-amide] | < 0.2 µM
COc1ccc(Oc2cncc(N(C)CCCN(C)C(C)=O)n2)cc1 [Compound 80, N-(3-{[6-(4-Methoxy-phenoxy)-pyrazin-2-yl]-methyl-amino}-propyl)-N-methyl-acetamide] | 1 to 10 µM
CC(=O)N(C)CCCc1cncc(Oc2ccc(-c3ccc(F)cn3)cc2)n1 [Compound 220, N-(3-{6-[4-(5-Fluoro-pyridin-2-yl)-phenoxy]-pyrazin-2-yl}-propyl)-N-methyl-acetamide] | 1 to 10 µM
O=C1CCCCN1CCCc1cncc(Oc2ccc(-c3ccc(N4CCOCC4)nc3)cc2)n1 [Compound 25, 1-(3-{6-[4-(6-Morpholin-4-yl-pyridin-3-yl)-phenoxy]-pyrazin-2-yl}-propyl)-piperidin-2-one] | < 0.2 µM
CC(=O)N(C)CCN(C)c1cncc(Oc2ccc(Cl)c(C(F)(F)F)c2)n1 [Compound 88, N-(2-{[6-(4-Chloro-3-trifluoro-methyl-phenoxy)-pyrazin-2-yl]-methyl-amino}-ethyl)-N-methyl-acetamide] | 1 to 10 µM
CC(=O)N(C)CCN(C)c1cncc(Oc2ccc(Br)c(F)c2F)n1 [Compound 248, N-(2-{[6-(4-Bromo-2,3-difluoro-phenoxy)-pyrazin-2-yl]-methyl-amino}-ethyl)-N-methyl-acetamide] | 0.2 to 1 µM
CC(=O)N(C)CCN(C)c1cncc(OC2Cc3ccccc3C2)n1 [Compound 223, N-(2-{[6-(Indan-2-yloxy)-pyrazin-2-yl]-methyl-amino}-ethyl)-N-methyl-acetamide] | 0.2 to 1 µM
COc1ccc(Oc2cncc(N(C)CCN(C)C(C)=O)n2)c(F)c1 [Compound 109, N-(2-{[6-(2-Fluoro-4-methoxy-phenoxy)-pyrazin-2-yl]-methyl-amino}-ethyl)-N-methyl-acetamide] | 0.2 to 1 µM
CC(=O)N(C)CCNc1cncc(Oc2ccc(-c3ccncc3C#N)cc2F)n1 [Compound 257, N-(2-{6-[4-(3-Cyano-pyridin-4-yl)-2-fluoro-phenoxy]-pyrazin-2-ylamino}-ethyl)-N-methyl-acetamide] | 0.2 to 1 µM
COc1ccc(Oc2cncc(N(C)CCN(C)C(=O)Cc3ccc(F)cc3)n2)cc1 [Compound 63, 2-(4-Fluoro-phenyl)-N-(2-{[6-(4-methoxy-phenoxy)-pyrazin-2-yl]-methyl-amino}-ethyl)-N-methyl-acetamide] | 1 to 10 µM
O=C1CCCCN1CCNc1cncc(Oc2ccc(-c3ccc(N4CCOCC4)nc3)cc2)n1 [Compound 295, 1-(2-{6-[4-(6-Morpholin-4-yl-pyridin-3-yl)-phenoxy]-pyrazin-2-ylamino}-ethyl)-piperidin-2-one] | < 0.2 µM
CC(=O)N(C)CCN(C)c1cncc(Oc2ccc(-c3ccc([N+](=O)[O-])cn3)cc2)n1 [Compound 198, N-Methyl-N-[2-(methyl-{6-[4-(5-nitro-pyridin-2-yl)-phenoxy]-pyrazin-2-yl}-amino)-ethyl]-acetamide] | < 0.2 µM
CC(=O)N(C)CCCc1cncc(Oc2ccc(-c3ccc(N4CCOCC4)nc3)cc2)n1 [Compound 216, N-Methyl-N-(3-{6-[4-(6-morpholin-4-yl-pyridin-3-yl)-phenoxy]-pyrazin-2-yl}-propyl)-acetamide] | 0.2 to 1 µM
CC(=O)N(C)CCN(C)c1cncc(Oc2ccc(-c3cc(N)ccn3)cc2)n1 [Compound 172, N-[2-({6-[4-(4-Amino-pyridin-2-yl)-phenoxy]-pyrazin-2-yl}-methyl-amino)-ethyl]-N-methyl-acetamide] | 0.2 to 1 µM
C=CC(=O)N(C)CCN(C)c1cncc(Oc2ccc(F)cc2)n1 [Compound 290, N-(2-{[6-(4-Fluoro-phenoxy)-pyrazin-2-yl]-methyl-amino}-ethyl)-N-methyl-acrylamide] | 1 to 10 µM
CCOC(=O)Cc1ccc(Oc2cncc(N(C)CCN(C)C(C)=O)n2)cc1 [Compound 137, [4-(6-{[2-(Acetyl-methyl-amino)-ethyl]-methyl-amino}-pyrazin-2-yloxy)-phenyl]-acetic acid ethyl ester] | < 0.2 µM
CC(=O)N(C)CCN(C)c1cncc(Oc2ccc(-c3nccs3)cc2)n1 [Compound 158, N-Methyl-N-(2-{methyl-[6-(4-thiazol-2-yl-phenoxy)-pyrazin-2-yl]-amino}-ethyl)-acetamide] | < 0.2 µM
CN(CCN(C)c1cncc(Oc2ccc(F)cc2)n1)C(=O)CO [Compound 286, N-(2-{[6-(4-Fluoro-phenoxy)-pyrazin-2-yl]-methyl-amino}-ethyl)-2-hydroxy-N-methyl-acetamide] | < 0.2 µM
